This note sets out measurements from patent US8563542B2 (Cyclacel Limited, priority 2007, dated 2013).

As usually defined, the IC50 is the concentration that gives 50% inhibition.

In the assay the target is PLK1 (Homo sapiens, UniProt P53350). In words: PLK1 protein kinase assay (CDC25C phosphorylation, [γ-32P]-ATP). The conditions noted are these: Table 2, PLK1 IC50; class symbols; read-out: PLK1 IC50. It counts as biochemical.
Sequence of PLK1 (P53350 whole entry): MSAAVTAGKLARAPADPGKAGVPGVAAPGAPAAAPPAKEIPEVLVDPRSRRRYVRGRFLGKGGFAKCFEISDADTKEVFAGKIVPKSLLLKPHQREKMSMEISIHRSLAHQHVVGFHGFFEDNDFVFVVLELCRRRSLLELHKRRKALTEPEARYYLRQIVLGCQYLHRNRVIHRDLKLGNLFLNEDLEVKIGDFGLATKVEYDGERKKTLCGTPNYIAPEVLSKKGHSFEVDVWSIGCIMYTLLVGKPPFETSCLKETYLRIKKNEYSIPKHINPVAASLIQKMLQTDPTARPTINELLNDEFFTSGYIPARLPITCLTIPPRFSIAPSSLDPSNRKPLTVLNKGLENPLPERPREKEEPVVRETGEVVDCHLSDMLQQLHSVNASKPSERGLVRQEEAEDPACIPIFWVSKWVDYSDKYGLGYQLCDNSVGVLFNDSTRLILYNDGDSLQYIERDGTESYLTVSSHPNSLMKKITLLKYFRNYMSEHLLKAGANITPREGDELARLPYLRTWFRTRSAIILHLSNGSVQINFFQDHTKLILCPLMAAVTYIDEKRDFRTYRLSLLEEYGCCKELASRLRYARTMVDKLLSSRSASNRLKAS

Regarding `COc1cc(C(=O)NC2CCN(C)CC2)ccc1Nc1ncc2c(n1)N(C1CC1)CCC(=O)N2C` [compound 207, 4-(9-Cyclopropyl-5-methyl-6-oxo-6,7,8,9-tetrahydro-5H-pyrimido[4,5-b][1,4]diazepin-2-ylamino)-3-methoxy-N-(1-methyl-piperidin-4-yl)-benzamide], the IC50 is less than 10000 nM. As for `COc1cc(C(=O)NC2CCN(C)CC2)ccc1Nc1ncc2c(n1)N(CCO)CCC(=O)N2C` [compound 208, 4-[9-(2-Hydroxy-ethyl)-5-methyl-6-oxo-6,7,8,9-tetrahydro-5H-pyrimido[4,5-b][1,4]diazepin-2-ylamino]-3-methoxy-N-(1-methyl-piperidin-4-yl)-benzamide], the figure is less than 1000 nM. As for `COc1cc(C(=O)NC2CCN(S(C)(=O)=O)CC2)ccc1Nc1ncc2c(n1)N(C1CCCC1)CCC(=O)N2C` [compound 209, 4-(9-Cyclopentyl-5-methyl-6-oxo-6,7,8,9-tetrahydro-5H-pyrimido[4,5-b][1,4]diazepin-2-ylamino)-N-(1-methanesulfonyl-piperidin-4-yl)-3-methoxy-benzamide], the figure is less than 1000 nM; as for `COc1cc(C(=O)NC2CCN(C(C)=O)CC2)ccc1Nc1ncc2c(n1)N(C1CCCC1)CCC(=O)N2C` [compound 210, N-(1-Acetyl-piperidin-4-yl)-4-(9-cyclopentyl-5-methyl-6-oxo-6,7,8,9-tetrahydro-5H-pyrimido[4,5-b][1,4]diazepin-2-ylamino)-3-methoxy-benzamide], less than 1000 nM. For the compound `CCOC(=O)CN1CCC(NC(=O)c2ccc(Nc3ncc4c(n3)N(C3CCCC3)CCC(=O)N4C)c(OC)c2)CC1` [compound 211, {4-[4-(9-Cyclopentyl-5-methyl-6-oxo-6,7,8,9-tetrahydro-5H-pyrimido[4,5-b][1,4]diazepin-2-ylamino)-3-methoxy-benzoylamino]-piperidin-1-yl}-acetic acid ethyl ester], the IC50 is less than 1000 nM. As for `COc1cc(C(=O)NC2CCN(C(=O)c3ccccc3)CC2)ccc1Nc1ncc2c(n1)N(C1CCCC1)CCC(=O)N2C` [compound 212, N-(1-Benzoyl-piperidin-4-yl)-4-(9-cyclopentyl-5-methyl-6-oxo-6,7,8,9-tetrahydro-5H-pyrimido[4,5-b][1,4]diazepin-2-ylamino)-3-methoxy-benzamide], the figure is less than 1000 nM; as for `CN1CCC(NC(=O)c2ccc(Nc3ncc4c(n3)N(C3CCCC3)CCC(=O)N4C)c(Cl)c2)CC1` [compound 214, 3-Chloro-4-(9-cyclopentyl-5-methyl-6-oxo-6,7,8,9-tetrahydro-5H-pyrimido[4,5-b][1,4]diazepin-2-ylamino)-N-(1-methyl-piperidin-4-yl)-benzamide], less than 100 nM. For `CN1CCC(NC(=O)c2ccc(Nc3ncc4c(n3)N(C3CCCC3)CCC(=O)N4C)c(OC(F)(F)F)c2)CC1` [compound 216, 4-(9-Cyclopentyl-5-methyl-6-oxo-6,7,8,9-tefrahydro-5H-pyrimido[4,5-b][1,4]diazepin-2-ylamino)-N-(1-methyl-piperidin-4-yl)-3-trifluoromethoxy-benzamide], the IC50 was less than 1000 nM. As for `COc1cc(C(=O)NC2CCN(Cc3ccccc3)CC2)ccc1Nc1ncc2c(n1)N(C1CCCC1)CC1(CCC1)C(=O)N2C` [compound 217, 4-(9-Cyclopentyl-5-methyl-6-oxo-6,7,8,9-tetrahydro-5H-spiro[pyrimido[4,5-b][1,4]diazepin-3,1′-cyclobutane]-2-ylamino)-3-methoxy-N-(1-benzylpiperidin-4-yl)-benzamide], the figure is less than 1000 nM.

For the compound `CCN(CC)CCNC(=O)c1ccc(Nc2ncc3c(n2)N(C2CCCC2)CC2(CCC2)C(=O)N3C)c(OC)c1` [compound 219, 4-(9-Cyclopentyl-5-methyl-6-oxo-6,7,8,9-tetrahydro-5H-spiro[pyrimido[4,5-b][1,4]diazepin-3,1′-cyclobutane]-2-ylamino)-N-(2-diethylamino-ethyl)-3-methoxy-benzamide], the IC50 was less than 100 nM. For `COc1cc(C(=O)NCc2ccco2)ccc1Nc1ncc2c(n1)N(C1CCCC1)CC1(CCC1)C(=O)N2C` [compound 222, 4-(9-Cyclopentyl-5-methyl-6-oxo-6,7,8,9-tetrahydro-5H-spiro[pyrimido[4,5-b][1,4]diazepin-3,1′-cyclobutane]-2-ylamino)-N-furan-2-ylmethyl-3-methoxy-benzamide] the value was less than 1000 nM; for `COc1cc(C(=O)NC2CCN(C)CC2)ccc1Nc1ncc2c(n1)N(CCC(=O)NCCO)CCC(=O)N2C` [compound 223, 4-{9-[2-(2-Hydroxy-ethylcarbamoyl)-ethyl]-5-methyl-6-oxo-6,7,8,9-tetrahydro-5H-pyrimido[4,5-b][1,4]diazepin-2-ylamino}-3-methoxy-N-(1-methyl-piperidin-4-yl)-benzamide], less than 10000 nM. As for `CNC(=O)CCN1CCC(=O)N(C)c2cnc(Nc3ccc(C(=O)NC4CCN(C)CC4)cc3OC)nc21` [compound 224, 3-Methoxy-4-[5-methyl-9-(2-methylcarbamoyl-ethyl)-6-oxo-6,7,8,9-tetrahydro-5H-pyrimido[4,5-b][1,4]diazepin-2-ylamino]-N-(1-methyl-piperidin-4-yl)-benzamide], the figure is less than 1000 nM; as for `COc1cc(C(=O)NC2CCN(C)CC2)ccc1Nc1ncc2c(n1)N(CCC(=O)N(C)C)CCC(=O)N2C` [compound 225, 4-[9-(2-Dimethylcarbamoyl-ethyl)-5-methyl-6-oxo-6,7,8,9-tetrahydro-5H-pyrimido[4,5-b][1,4]diazepin-2-ylamino]-3-methoxy-N-(1-methyl-piperidin-4-yl)-benzamide], less than 1000 nM; as for `COc1cc(C(=O)NC2CCN(C)CC2)ccc1Nc1ncc2c(n1)N(CCC(=O)NCCCN(C)C)CCC(=O)N2C` [compound 226, 4-{9-[2-(3-Dimethylamino-propylcarbamoyl)-ethyl]-5-methyl-6-oxo-6,7,8,9-tetrahydro-5H-pyrimido[4,5-b][1,4]diazepin-2-ylamino}-3-methoxy-N-(1-methyl-piperidin-4-yl)-benzamide], less than 1000 nM.

For `CN1CCC(NC(=O)c2ccc(Nc3ncc4c(n3)N(C3CCCC3)CCC(=O)N4C)c(O)c2)CC1` [compound 228, 4-(9-Cyclopentyl-5-methyl-6-oxo-6,7,8,9-tetrahydro-5H-pyrimido[4,5-b][1,4]diazepin-2-ylamino)-3-hydroxy-N-(1-methyl-piperidin-4-yl)-benzamide], the IC50 was less than 100 nM. As for `CCc1cc(C(=O)O)ccc1Nc1ncc2c(n1)N(C1CCCC1)CC1(CC1)C(=O)N2C` [compound 229, 4-(9-Cyclopentyl-5-methyl-6-oxo-6,7,8,9-tetrahydro-5H-pyrimido[4,5-b][1,4]diazepin-3,1′-cyclopropane-2-ylamino)-acid], the figure is less than 1000 nM; as for `COc1cc(C(=O)O)ccc1Nc1ncc2c(n1)N(CC1CC1)CC1(CC1)C(=O)N2C` [compound 230, 4-(9-Cyclopropylmethyl-5-methyl-6-oxo-6,7,8,9-tetrahydro-5H-pyrimido[4,5-b][1,4]diazepin-3,1′-cyclopropane-2-ylamino)-3-methoxy-benzoic acid], less than 1000 nM.

`CCN(CC)CCNC(=O)c1ccc(OC)c(Nc2ncc3c(n2)N(C2CCCC2)CCC(=O)N3C)c1` [compound 231, 3-(9-Cyclopentyl-5-methyl-6-oxo-6,7,8,9-tetrahydro-5H-pyrimido[4,5-b][1,4]diazepin-2-ylamino)-N-(2-diethylamino-ethyl)-4-methoxy-benzamide]: the 50% inhibitory concentration (IC50) was less than 1000 nM. Consider `COc1ccc(C(=O)NCCCN(C)C)cc1Nc1ncc2c(n1)N(C1CCCC1)CCC(=O)N2C` [compound 232, 3-(9-Cyclopentyl-5-methyl-6-oxo-6,7,8,9-tetrahydro-5H-pyrimido[4,5-b][1,4]diazepin-2-ylamino)-N-(3-dimethylamino-propyl)-4-methoxy-benzamide], for which the IC50 is less than 1000 nM.

Turning to `COc1ccc(C(=O)NCCCO)cc1Nc1ncc2c(n1)N(C1CCCC1)CCC(=O)N2C` [compound 233, 3-(9-Cyclopentyl-5-methyl-6-oxo-6,7,8,9-tetrahydro-5H-pyrimido[4,5-b][1,4]diazepin-2-ylamino)-N-(3-hydroxy-propyl)-4-methoxy-benzamide], the IC50 was less than 1000 nM.

For the compound `COc1ccc(C(=O)NC(C)(C)CN2CCCCC2)cc1Nc1ncc2c(n1)N(C1CCCC1)CCC(=O)N2C` [compound 234, 3-(9-Cyclopentyl-5-methyl-6-oxo-6,7,8,9-tetrahydro-5H-pyrimido[4,5-b][1,4]diazepin-2-ylamino)-N-(1,1-dimethyl-2-piperidin-1-yl-ethyl)-4-methoxy-benzamide], the half-inhibitory concentration (IC50) is less than 10000 nM.

As to `COc1ccc(C(=O)NCC2CCN(C)CC2)cc1Nc1ncc2c(n1)N(C1CCCC1)CCC(=O)N2C` [compound 235, 3-(9-Cyclopentyl-5-methyl-6-oxo-6,7,8,9-tetrahydro-5H-pyrimido[4,5-b][1,4]diazepin-2-ylamino)-4-methoxy-N-(1-methyl-piperidin-4-ylmethyl)-benzamide], the IC50 is less than 1000 nM.

Turning to `CCN1CCC(NC(=O)c2ccc(Nc3ncc4c(n3)N(C3CCCC3)CCC(=O)N4C)c(OC)c2)CC1` [compound 237, 4-(9-Cyclopentyl-5-methyl-6-oxo-6,7,8,9-tetrahydro-5H-pyrimido[4,5-b][1,4]diazepin-2-ylamino)-N-(1-ethyl-piperidin-4-yl)-3-methoxy-benzamide], the IC50 is less than 100 nM. For `COc1cc(C(=O)NC2CCN(CC3CC3)CC2)ccc1Nc1ncc2c(n1)N(C1CCCC1)CCC(=O)N2C` [compound 238, 4-(9-Cyclopentyl-5-methyl-6-oxo-6,7,8,9-tetrahydro-5H-pyrimido[4,5-b][1,4]diazepin-2-ylamino)-N-(1-cyclopropylmethyl-piperidin-4-yl)-3-methoxy-benzamide] the value was less than 100 nM; for `COc1cc(C(=O)O)ccc1Nc1ncc2c(n1)N(C1CCCC1)CC1(CC1)C(=O)N2C` [compound 239, 4-(9-Cyclopentyl-5-methyl-6-oxo-6,7,8,9-tetrahydro-5H-pyrimido[4,5-b][1,4]diazepin-3,1′-cyclopropane-2-ylamino)-3-methoxy-benzoic acid], less than 1000 nM.
